# Values quoted from earlier work, collected in paper PMC12308805, “Ultrahigh-Throughput Virtual Screening Strategies against PPI Targets: A Case Study of STAT Inhibitors” (Journal of Chemical Information and Modeling, 2025).
# Square brackets hold non-standard residues; d marks the D form. Peptide text beside a SMILES is read from it. * marks the point of attachment. pY = N[C@@H](Cc1ccc(OP(=O)(O)O)cc1)C(=O)O; X4 = O=C(/C=C/c1ccc(OP(=O)(O)O)cc1)*; aThr = C[C@H](O)[C@H](N)C(=O)O
# Test system: STAT3
# Details: cited from earlier work
row,Compound,Type (known STAT3 active)
1,CC(=O)N[C@@H](Cc1ccc(OP(=O)(O)O)cc1)C(=O)N[C@@H](CC(C)C)C(=O)N1CCC[C@H]1C(=O)N[C@@H](CCC(N)=O)C(=O)N[C@H](C(=O)N[C@H](C(N)=O)C(C)C)[C@H](C)O [CHEMBL502473],Active
2,CC(=O)N[C@@H](Cc1ccc(OP(=O)(O)O)cc1)C(=O)N[C@@H](CC(C)C)C(=O)N1CCC[C@H]1C(=O)N[C@@H](CCC(N)=O)C(=O)N[C@H](C(N)=O)[C@H](C)O [CHEMBL505076] (Ac-[pY]LPQ[aThr]-NH2),Active

# Same assay, conditions: sheet 6QHD_actives_decoys, retrospective screening set for STAT3 SH2 domain (PDB 6QHD); decoys are presumed inactives, not tested; ref DUD-E; cited from earlier work
row,Compound,Type
1,CC(C)COC(=O)c1ccc(Nc2ncnc(NNC(=O)Cc3ccc([N+](=O)[O-])cc3)c2[N+](=O)[O-])cc1 [Decoy822],Inactive (Decoy)
2,CCOc1ccc(NC(=O)CSC2=C(C#N)[C@@H](c3ccco3)C(C(=O)Nc3cc(OC)ccc3OC)=C(C)N2)cc1 [Decoy933],Inactive (Decoy)
3,CCOc1ccc2[nH]c(=O)c(CN(CCc3ccc(OC)c(OC)c3)Cc3nnnn3C3CCCC3)cc2c1 [Decoy799],Inactive (Decoy)
4,CC(=O)O[C@@H]1[C@@H](O)[C@@H](O[C@@H](C/N=C/c2c(O)ccc3ccccc23)[C@@H](CO)O[C@H](O)C/N=C/c2c(O)ccc3ccccc23)O[C@@H](CO)[C@H]1O [Decoy885],Inactive (Decoy)
5,COc1cc(S(=O)(=O)N2CCCCC2)ccc1N/C=C1\C(=O)NC(=O)N(c2ccc(C)cc2)C1=O [Decoy837],Inactive (Decoy)
6,CC/C=C\C/C=C\C/C=C\CCCCCCCC(=O)OC[C@@H](O)CO[C@H]1O[C@@H](CO[C@H]2O[C@@H](CO)[C@H](O)[C@@H](O)[C@@H]2O)[C@@H](O)[C@@H](O)[C@@H]1O [Decoy758],Inactive (Decoy)
7,CCCCSc1nnc(/N=C(\O)CSc2n[nH]c(N/N=C/c3c(C)nn(C(C)C)c3C)n2)s1 [Decoy797],Inactive (Decoy)
8,O=C(O)C[C@H](NS(=O)(=O)c1cc(S(=O)(=O)N[C@H](CC(=O)O)c2ccccc2)c2cccc3c2c1NC3=O)c1ccccc1 [Decoy892],Inactive (Decoy)
9,COc1cc(C[C@@]2(O)CO[C@H](c3ccc(O[C@@H]4O[C@H](CO)[C@@H](O)[C@H](O)[C@H]4O)c(OC)c3)[C@H]2CO)ccc1O [Decoy816],Inactive (Decoy)
10,CC(=O)OC[C@@H]1O[C@@H](Oc2cc(O)cc(O)c2C(=O)CCc2ccc([N+](=O)[O-])cc2)[C@@H](OC(C)=O)[C@H](OC(C)=O)[C@H]1OC(C)=O [Decoy880],Inactive (Decoy)
11,CCN(CC)S(=O)(=O)c1ccc(OC)c(NC(=O)COc2cc(C)ccc2C(N)=O)c1 [Decoy867],Inactive (Decoy)
12,CC[C@H](C)[C@H](OC(=O)[C@@H](OC(=O)[C@H](O)[C@@H](C)CC)[C@@H](C)CC)C(=O)OC[C@H](O)[C@H](O)[C@H](O)[C@H](O)CO [Decoy863],Inactive (Decoy)

# Same assay, conditions: sheet 6QHD_actives_decoys; known STAT3 actives of the retrospective screening set; ref ChEMBL / literature; cited from earlier work
row,Compound,Type (known STAT3 active)
1,CC(C)C[C@H](NC(=O)/C=C/c1ccc(OP(=O)(O)O)cc1)C(=O)N1C[C@H]2C[C@H]2[C@H]1C(=O)N[C@@H](CCC(N)=O)C(=O)NCc1ccccc1 [CHEMBL575497],Active
2,CC(C)C[C@H](NC(=O)/C=C/c1ccc(OP(=O)(O)O)cc1)C(=O)N1CCC[C@H]1C(=O)N[C@@H](CCC(N)=O)C(=O)N[C@H](C(N)=O)[C@@H](C)O [CHEMBL470227] (X4-LPQT-NH2),Active

# Same assay, conditions: sheet 6QHD_actives_decoys; retrospective screening set for STAT3 SH2 domain (PDB 6QHD); […]; ref DUD-E; cited from earlier work
row,Compound,Type
1,COc1cc([C@H]2C(C#N)=C(N)Oc3[nH]nc(-c4cc(OC)c(OC)c(OC)c4)c32)ccc1OC(=O)N1CCOCC1 [Decoy695],Inactive (Decoy)
2,C=C1[C@@H](O)[C@@H]2O[C@]3(CC[C@@H]2O[C@@H]1[C@@H](O)C[C@H](C)[C@H]1O[C@@]2(CCCCO2)CC[C@H]1C)CC[C@H](/C=C/[C@@H](C)[C@H]1CC(C)=C[C@@]2(O[C@@H](C[C@@](C)(O)C(=O)O)CC[C@H]2O)O1)O3 [Decoy484],Inactive (Decoy)
3,CC(=O)Nc1ccc(S(=O)(=O)N[C@@]2(C(F)(F)F)C(=O)N=C3C2=C(O)N=C(S)N3Cc2ccco2)cc1 [Decoy697],Inactive (Decoy)

# Same assay, conditions: sheet 6QHD_actives_decoys; retrospective screening set for STAT3 SH2 domain (PDB 6QHD); decoys generated with DUD-E and presumed inactive, not tested; ref DUD-E; cited from earlier work
row,Compound,Type
1,O=C(O)c1[nH]nc(-c2ccc(O[C@H]3O[C@@H](CO)[C@@H](O)[C@@H](O)[C@H]3O)cc2O)c1-c1ccc2c(c1)OCCO2 [Decoy397],Inactive (Decoy)
2,COc1ccc(C(=O)NCCc2nnc3ccc(SCC(=O)Nc4ccc(OC(F)(F)F)cc4)nn23)cc1 [Decoy531],Inactive (Decoy)
3,NS(=O)(=O)c1ccc(NC(=O)CSc2ccc(NC(=O)c3cccc([N+](=O)[O-])c3)cc2)cc1 [Decoy391],Inactive (Decoy)
4,NCCCCCCNc1nc2c(N)ncnc2n1[C@H]1O[C@@H](CO[P@](=O)(O)O[P@](=O)(O)OP(=O)(O)O)[C@@H](O)[C@H]1O [Decoy384],Inactive (Decoy)
5,CC(=O)O[C@H]([C@H](OC(C)=O)[C@H](OC(C)=O)C(=O)NC1CCCCCC1)[C@H](OC(C)=O)C(=O)NC1CCCCCC1 [Decoy425],Inactive (Decoy)
6,C=C(CCO)C(=O)OC[C@H]1OC[C@@H](OC(=O)C(=C)CCO[C@@H]2O[C@H](COC(=O)C(=C)CCO)[C@@H](O)[C@H](O)[C@H]2O)[C@@H](O)[C@H]1O [Decoy492],Inactive (Decoy)
7,COC(=O)[C@@H]1O[C@@H](O[C@@H]2CC[C@@]3(C)[C@@H](CC[C@@H]4[C@H]5CC[C@@H](/C(COC(C)=O)=N/NC(N)=O)[C@@]5(C)CC(=O)[C@H]43)C2)[C@H](OC(C)=O)[C@@H](OC(C)=O)[C@@H]1OC(C)=O [Decoy622],Inactive (Decoy)
8,O=C(NCCCCCCNC(=O)N(CCO)[C@H]1CCS(=O)(=O)C1)N(CCO)[C@@H]1CCS(=O)(=O)C1 [Decoy656],Inactive (Decoy)
9,COc1cc(C[C@H]2CO[C@H](c3ccc(O)c(OC)c3)[C@@H]2CO[C@H]2O[C@@H](CO)[C@@H](O)[C@@H](O)[C@H]2O)ccc1O [Decoy715],Inactive (Decoy)
10,CCCSc1nnc(/N=C(\O)CSc2nnc(N/N=C/c3c(C)nn(C(C)C)c3C)n2N)s1 [Decoy476],Inactive (Decoy)
11,C=C[C@H]1[C@H](O[C@H]2O[C@@H](CO)[C@@H](O)[C@@H](O)[C@@H]2O)OC=C(C(=O)OC)[C@H]1CCOC(=O)c1cc(O)c(O)c(O)c1 [Decoy699],Inactive (Decoy)
12,COC(=O)c1cc2c(cc1C(=O)OC)OCCOCCOCCN(Cc1cn(CCOCCOCCO)nn1)CCOCCOCCO2 [Decoy630],Inactive (Decoy)
13,CCOC(=O)c1sc(N/N=C(\C(=O)Nc2cccc(OC)c2)C(=O)c2ccc([N+](=O)[O-])cc2)c(C(=O)OCC)c1C [Decoy517],Inactive (Decoy)
14,CCN(CC)CCCNC(=S)N(CCN1CCOCC1)Cc1cc2cc3c(cc2[nH]c1=O)OCCO3 [Decoy416],Inactive (Decoy)
15,O=c1ccn([C@@H]2O[C@@H](CO[P@@](=O)(O)O[P@@](=O)(O)OP(=O)(O)O)[C@@H](O)[C@@H]2O)c(=O)[nH]1 [Decoy511],Inactive (Decoy)
16,COC(=O)[C@@H]1O[C@H](OC/C(=N/NC(N)=O)[C@@]2(O)CC[C@@H]3[C@@H]4CC[C@H]5C[C@H](OC(C)=O)CC[C@@]5(C)[C@H]4C(=O)C[C@]32C)[C@@H](OC(C)=O)[C@H](OC(C)=O)[C@H]1OC(C)=O [Decoy340],Inactive (Decoy)
17,Cc1ccc(S(=O)(=O)NCc2ccco2)cc1C(=O)NNC(=O)c1nn(-c2ccccc2)cc1O [Decoy610],Inactive (Decoy)
18,CCN[C@H](c1cc(Br)ccc1Cl)c1cc(Br)ccc1Br [Decoy479],Inactive (Decoy)
